{"source": "patent US20260215432A1", "about": "“ANTIMICROBIAL CONJUGATED OLIGOELECTROLYTES AND METHODS THEREOF” (National University of Singapore, priority 2023, published 2026)", "key": {"[1]": {"tested_on": "Pseudomonas aeruginosa (PAO1, ATCC 47085)", "test": "Time-kill kinetics", "assay_type": "cell-based", "details": "P. aeruginosa, treatment at or above the MBC", "description": "Separately, MRSA and P. aeruginosa cultures were challenged with DM6P at varying concentrations and aliquots were taken at specific intervals to quantify the bacteria remaining.\nThe time-kill kinetics was determined against Pseudomonas aeruginosa (PAO1, ATCC 47085) and methicillin-resistant Staphylococcus aureus (ATCC BAA-1717). Bacteria tested were subcultured in Cation-Adjusted Mueller Hinton II Broth (CAMHB, BD Biosciences) from overnight cultures to mid-log phase at 37° C. with shaking at 200 rpm and diluted to an OD600 value of 0.2 and aliquoted into 2 mL fractions in culture tubes. The resulting bacterial suspension was then challenged with DM6P at varying concentrations and incubated at 37° C. with shaking at 200 rpm. At regular intervals, 100 μL aliquots of each sample were diluted with 10-fold dilution in PBS and plated on TSB agar plates with 100 μL inoculation. The colonies were incubated at 37° C. overnight and counted to determine the cfu/mL of each sample. Experiments were performed in triplicate."}, "P. aeruginosa": {"tested_on": "P. aeruginosa", "test": "Resistance development by serial passaging at 0.5× MIC", "assay_type": "cell-based", "description": "The non-specific action of membrane-active antibiotics lends itself to minimal development of resistance development due to the large metabolic burden involved, unlike traditional antibiotics with a well-defined enzymatic target. Based on this premise, we passaged bacteria incubated with DM6P, or ciprofloxacin (control), at 0.5× MIC to investigate the adaptation of bacteria towards external antibiotic stress. As a control, treatment of MRSA with ciprofloxacin gave rise to antibiotic-resistant mutants within 4 passages, see FIG. 4a. […] Combined with its broad spectrum of activity, this feature opens opportunities for the use of COE antimicrobial agents to address polymicrobial infections with a lower rate of emerging antibiotic resistance."}, "MRSA [2]": {"tested_on": "MRSA", "test": "Membrane depolarization assay (DiSC3(5))", "assay_type": "cell-based, S. aureus", "details": "DiSC3(5)-encapsulated MRSA cells", "text": "(§1) The interactions of DM6P with various bacterial cell membranes were first investigated through spectrometric methods. In normal cells, compartmentalization of the intracellular space by the lipid bilayer enables the maintenance of a transmembrane potential, which is necessary for regular cell division and energy production. The membrane-potential sensitive dye 3,3′-dipropylthiadicarbocyanine iodide (DiSC3(5)) accumulates within the membranes of healthy, polarized cells where its fluorescence is self-quenched. Depolarization of the membrane necessary to maintain this gradient causes the release of this dye, resulting in an increase in fluorescence intensity. […]\n(§2) Determination of the extent of depolarization of bacterial cell membranes was carried out using a voltage sensitive dye DiSC3(5) (ThermoFisher, USA). The dye is able to accumulate within polarized healthy cell membranes with resulting quenched fluorescence. When the membrane is depolarized, subsequent ion permeabilization releases the dye from the membrane and gives rise to enhanced fluorescence intensity.^3 The assay was performed according to a modified protocol reported previously. […] The plate was incubated in the dark for 30 minutes, with the signal measured every 5 minutes until a stable baseline was observed. COEs were then added at varying concentrations and the fluorescence intensity was measured over time at 37° C. […]"}, "PAO1": {"tested_on": "PAO1", "test": "Membrane depolarization assay (DiSC3(5))", "assay_type": "cell-based, P. aeruginosa", "details": "DiSC3(5)-encapsulated PAO1 cells", "text": "as §1, §2"}, "MRSA [3]": {"tested_on": "MRSA", "test": "Propidium iodide influx assay", "assay_type": "cell-based, S. aureus", "details": "0.5 to 2 μg mL^−1 (half to twice the MIC)", "text": "Another hallmark of cytoplasmic membrane damage is an enhanced permeability towards small molecules. Propidium iodide (PI) is a membrane-impermeant organic dye that can be used to study potential mechanisms of action of antibiotics due to its enhanced fluorescence intensity upon binding to intracellular DNA. Treatment with molecules that cause membrane perturbations enable rapid influx of the dye, resulting in an increase in fluorescence emission that can be monitored over time. […] This difference hints at two plausible mechanisms of action that are concentration dependent. Similar observations have been made for tobramycin, where a protein inhibition mode of action at lower concentrations (<4 μg mL^−1) is supplanted by disruption of the outer membrane at higher concentrations (8 μg mL^−1).\nThe assay was performed according to a modified reported protocol.^4 Briefly, the corresponding bacteria was collected from mid-log cultures by centrifugation (7000 rpm, 10 minutes) and washed thrice with PBS. The pellet was then resuspended in the same buffer and diluted to an optical density of 2 by extrapolation. […] Fluorescence intensity was measured over time in a plate reader with an excitation wavelength of 525 nm and emission wavelength of 620 nm. Fluorescence signals were measured every 30 seconds and carried out in triplicate."}, "[4]": {"tested_on": "Staphylococcus pseudintermedius", "test": "Mouse wound infection model, S. pseudintermedius", "assay_type": "in vivo, mice", "details": "for average CFU: S. pseudintermedius mouse wound", "text": "Staphylococcus pseudintermedius (SP) is particularly pathogenic towards dogs, with skin infections such as pyoderma being characterized by a lengthy treatment period and high treatment failure due to antimicrobial resistance. Here, we show high in vivo antimicrobial efficacy of compounds of FIG. 11 in a mouse wound infection model, featuring over a 3-log reduction in bacterial load at low concentrations. The grouping tested with saline has an average CFU of 5.16×10^8 CFU/g. The grouping tested with DM6P (0.1 mg/kg) has an average CFU of 1.62×10^7 CFU/g. The grouping tested with DM6P (0.25 mg/kg) has an average CFU of 5.51×10^5 CFU/g.\nFor testing against Staphylococcus pseudintermedius, C57BL/6[SPF] mice (female, 18-20 g) were first acclimated, weighed and grouped based on body weight into 3 groups. Mice were anaesthetized and the hair at the back will be shaved and removed. A 6 mm-diameter excisional wound was created on the back of each mouse, and log-phase Staphylococcus pseudintermedius (Sp strain) (in 5 μL PBS) will be inoculated onto the wound. A 3M tegaderm will be used to cover the wound site from contamination. 2 h post infection, the groups were tested with saline, DM6P (0.1 mg/kg) and DM6P (0.25 mg/kg) respectively, by adding directly to wound site. At 12 h and 24 h post infection, sampling and colony enumeration were conducted. At 24 h post infection, all mice were sacrificed and the wound tissue harvested into 1 mL PBS."}}, "data": [{"smiles": "COc1cc(/C=C/c2ccc(OCCCCCC[P+](c3ccccc3)(c3ccccc3)c3ccccc3)c(OC)c2)ccc1OCCCCCC[P+](c1ccccc1)(c1ccccc1)c1ccccc1.[I-].[I-]", "note": "[DM6P]", "values": [{"measurement": "killing at or above the MBC value", "setting": "[1]", "result": "eradication of the cells"}, {"measurement": "resistance development", "setting": "P. aeruginosa", "result": "did not induce any observable resistant mutants"}, {"measurement": "depolarization of the bacterial membrane", "setting": "MRSA [2]", "result": "dose-dependent depolarization"}, {"measurement": "depolarization of the bacterial membrane", "setting": "PAO1", "result": "dose-dependent depolarization"}, {"measurement": "PI influx", "setting": "MRSA [3]", "result": "PI influx was observed at 2×MIC"}, {"measurement": "average CFU", "setting": "[4]; 0.1 mg/kg", "result": "1.62×10^7 CFU/g"}, {"measurement": "average CFU", "setting": "[4]; 0.25 mg/kg", "result": "5.51×10^5 CFU/g"}, {"measurement": "tolerability (side effects)", "setting": "[4]; mice, following compound administration", "result": "did not show any negative side effects"}]}]}
